Measurements: a melting point compilation (Tetko et al.; mined from patent text by program, amines drawn as free bases though some values may be those of a salt)

Compound | melting point [°C]
CC1(C)CC(OC(=O)c2cccc(C(=O)OC3CC(C)(C)N(OC4CCCCC4)C(C)(C)C3)c2)CC(C)(C)N1OC1CCCCC1 | 135 to 141
COc1ccc(NC(=O)N=C2CCCN2C)cc1OC | 118 to 120
O=C(/C=C/c1cccc(Br)c1)NC1CC1 | 110 to 111
CCOc1nc(N2CCN(C(=O)CCC(=O)O)CC2)nc(N2CCS(=O)CC2)c1[N+](=O)[O-] | 198 to 200
OCCC(c1ccccc1)c1cc(Br)ccc1OCc1ccccc1 (stereo not drawn) | 70
Nc1nc(N)c(-c2cccc(Cl)c2Cl)c(COc2ccccc2)n1 | 211 to 213
N#CC1(c2ccccc2)CCN(c2ccn(CC3CC3)c(=O)c2Cl)CC1 | 174
O=C(NC(=O)c1c(F)cccc1F)Nc1ccc(F)c(C(F)(F)F)c1Cl | 214
CC1(C)CC(O)c2cc(OCc3ccccc3)ccc2O1 (stereo not drawn) | 83 to 84
O=C(CCCCCN1CCC(c2cccc(C(F)(F)F)c2)CC1)N1Cc2ccccc2C1 | 71
COc1ccc(C(=O)OCCOC(=O)NC2(C(=O)O)CC2)cc1OC | 172 to 174
O=C(NCCO)c1[nH]c2ccc(Cl)cc2c1S(=O)(=O)c1ccccc1 | 198 to 200
COC(=O)Cc1cc(O)n(C)n1 | 148
CC(Nc1ncccc1C#N)c1c(Cl)cccc1Cl (stereo not drawn) | 84.4
C=CCN(C)c1ccc(C(C#N)=C(C#N)C#N)cc1 | 155
O=c1[nH]cnc2c1ncn2[C@@H]1C[C@H](O)[C@@H](O)[C@H]1O (racemic) | 198 to 201
COc1ccc(C(=O)Nc2c(Cl)cc(N)cc2Cl)cc1OC1CCCC1 | 170 to 172
C=CC[C@H](C(N)=O)[C@@H](CC(C)C)C(=O)NC1N=C(N(C)C)c2ccccc2N(C)C1=O (stereo partly drawn) | 230 to 232
CN(C)C=CC(=O)c1cccc(N(C)C(=O)C2CC2)c1 | 120 to 122
CC(C)(C)c1ccc(NC=CS(=O)(=O)F)cc1 | 67 to 70.5
CC(=O)Nc1ccc(-n2ccnc2SCc2ccccc2N2CCOCC2)nc1 | 164 to 167
CCOCc1nc2c(N)nc3ccccc3c2n1Cc1cc(-c2cccnc2)no1 | 240 to 242
CCCc1nc(CO)c(C(=O)O)n1Cc1cc2c(cc1Cl)OCO2 | 240
Cc1ccc(N)cc1NC(=O)c1ccc(O)cc1 | 277 to 278
CC=CC(c1ccc2c(c1)nnn2C)n1ccnc1 (stereo not drawn) | 104
COc1ccc(OCC(O)CNC(C)(C)C)c(C2=NNC(=O)CC2)c1 (stereo not drawn) | 127 to 128
Cn1c([N+](=O)[O-])cnc1COc1ccc([N+](=O)[O-])cc1C(F)(F)F | 153

Compound | melting point [°C]
COC1CC2(C)C(CCC3C4CC(C)C(C(C)=O)C4(C)CC(=O)C32)CC1O (stereo not drawn) | 180 to 182
Cn1c(CCNC(=O)OCc2ccccc2)nc(-c2ccncn2)cc1=O | 121 to 123
OC1(C#Cc2ccc(-c3ccc(F)cc3)cc2)CN2CCC1CC2 (stereo not drawn) | 232 to 233
COc1cc(-c2cccs2)ccc1C(=O)/C=C/c1ccc(C(=O)O)cc1 | 193 to 195
C=CS(=O)(=O)c1c(Cl)c(Cl)nn1C | 66 to 69
Cc1cc2cccc(Br)c2nc1C | 78
O=C(Nc1ccc(Oc2ccnc(NCC3CC3)n2)c2ccccc12)c1cc(F)cc(N2CCCCC2)c1 | 117 to 119
CCCCCCCCCOC(=O)Oc1ccc(C(=O)O)cc1 | 118 to 120
N#Cc1ccc(-c2cc(C(=O)N[C@H]3CC[C@H](C(=O)O)CC3)c(=O)n(Cc3ccccc3)n2)cc1 | 215 to 218
Cc1c(CCCO)c2c(c(C)c1NC(=O)NCCO)C(c1ccc(C(C)C)cc1)CO2 (stereo not drawn) | 153 to 154
CC(C)(C)c1ccc(-c2ccc3c(c2)C=C(C(=O)O)CCS3(=O)=O)cc1 | 289 to 291
Cc1c(C(=O)O)oc2cc(O)c(Cl)cc12 | 279 to 280
CS(=O)(=O)NCc1cccc(-c2nc(=O)c3ccccc3s2)n1 | 188 to 190
COc1ccc2c(c1)N(CC1CN3CCC1CC3)c1ccccc1S2 (stereo not drawn) | 135 to 136
CC(=O)N1CCC(=O)C(C(c2ccc(Cl)cc2)c2ccc(Cl)cc2)C1 (stereo not drawn) | 169 to 171
CNC(=O)CC=C(CC(C)C)C(=O)OC(C)(C)C | 35 to 36
Cc1ccsc1C(=O)C(=CN(C)C)c1ccc(C(F)(F)F)cc1[N+](=O)[O-] | 118
COC(=O)c1ccc(NC(=O)C(=Cc2ccccc2)C(=O)C(C)C)cc1 | 154 to 156
Cc1cc(O)ccc1OCc1ccccc1 | 70 to 71
OCC12OC1CC(OCc1ccccc1)C2COCc1ccccc1 (stereo not drawn) | 60 to 62
CO[C@H]1O[C@@H](C)[C@@H]2C(=O)[C@H]3CCCC[C@@H]3C[C@H]12 | 86 to 87
COc1ccc(Cn2c(=O)c3ccccc3n(CCCCCl)c2=O)cc1 | 123 to 124
CC=CN(C=CC)c1ccc2[nH]c3cnc(-c4nc(CC)no4)cc3c2c1 | 151 to 156
Cc1ccc(S(=O)(=O)OCCCOc2ccc([N+](=O)[O-])c(CS(=O)(=O)c3cccc4ccccc34)c2)cc1 | 162 to 164
OC1CSC(Oc2cc(-c3ccnc(F)c3)cc(F)c2F)C(O)C1O (stereo not drawn) | 184
COC(=O)c1c(C)nc2c(c1N)c1cc(Cl)ccc1n2C | 203 to 211
COc1ccc(N2CCC(=O)N(c3ccc(F)cc3)CC2)c(-c2ccc(N(C)C)cc2)n1 | 130 to 139

The remaining lines, values ahead:

melting point [°C] | Compound
181 | COc1ccccc1NS(=O)(=O)c1cccc(C=CC(=O)NO)c1
109 to 110 | COC(=O)Cn1c(=O)c2ccccc2n(CCCN2CCC(OC(c3ccccc3)c3ccccc3)CC2)c1=O
188 | CC12CCC(C1)C1(C)Oc3ccc(C(=O)COc4ccc(C(=O)O)cc4)cc3C21C (stereo not drawn)
109 to 110 | CC(=O)NC[C@H]1CN(c2ccc(C3CCNCC3)c(F)c2)C(=O)O1
192 to 194 | Cc1c(Nc2c(I)cncc2C#N)ccc2[nH]ccc12
135 to 137 | Cc1ccc(S(=O)(=O)C2=C(C(=O)OC3CCCCC3)C(=O)C=C(C(=O)OC3CCCCC3)C2=O)cc1
100 to 101 | O=S(=O)(/C=C\S(=O)(=O)c1ccccc1)c1ccccc1
> 250 | COc1cc2[nH]cc(C(=O)Nc3cccnc3)c2cc1Br
165 to 167 | COc1ccc(CCCCc2ccc(OC)c(OC)c2OC)cc1OC
54.5 to 57 | O=[N+]([O-])c1cccc(OCCCl)c1
146 to 147 | O=C(Nc1cccc(Cl)c1)NN1CC=CCC1
170 | CN(CCCN1CCN(c2ccccc2C2CC2)CC1)c1nccc(C(N)=O)n1
137 to 139 | CNC(C)CN1CCc2c(c(=O)oc3cc(OC)c(OC)cc23)C1 (stereo not drawn)
136 to 137 | Cc1nc(CN2C(=O)C3(COc4cc5c(cc43)OCO5)c3ccccc32)c(C(F)(F)F)o1 (stereo not drawn)
191 to 193 | Cc1cnc2c(C#N)cnn2c1-c1cccc(C(F)(F)F)c1
209 to 211 | CC1(C)OC(=S)Nc2ccc(-c3ccc(F)c(F)c3)cc21
255 to 261 | CCOCn1cnc2c(N)nc3ccccc3c21
206 to 207 | COc1cccc(OC)c1-c1ccc(C[C@H](NC(=O)c2c(Cl)cc(F)cc2Cl)C(=O)O)cc1
70 | COC(=O)Cc1ccc(CNC(=O)C2Cc3ccccc3N2S(=O)(=O)c2ccc(-c3cccc(Cl)c3)cc2)cc1 (stereo not drawn)
166 to 168 | CS(=O)(=O)c1ccc(-c2cnn(-c3ccc(F)c(F)c3)c(=O)c2Cc2ccccc2)cc1
72 to 75 | CCCCCCCCCCCCCOc1ccc(CO)cc1
167 to 170 | O=C(Nc1ccccc1)N1CCC(C2Oc3ccccc3Cn3cccc32)CC1 (stereo not drawn)

melting point [°C] | Compound
202 to 207 | O=S(=O)(c1ccccc1)c1c[nH]c2cccc(Br)c12
125 to 127 | O=C1CCCN1C1=CC(CF)(CF)Oc2ccc(C(F)(F)F)cc21
86 to 87 | CC(=O)Oc1cccc(C=Cc2ccc3ccccc3n2)c1
83 to 85 | CC1(C)C(=O)N(Cc2ccccc2)C(=O)N1CC#CI
101 to 102 | COC(=O)[C@@H](NC(=O)OC(C)(C)C)[C@H](O)c1ccccc1
94 to 95 | CCOC(=O)C1(CCl)Nc2cc(C)cc(C)c2C(=O)N1c1ccccc1Cl (stereo not drawn)
77 to 80 | Cc1ccc(Cl)c(N)c1C#N
188 to 190 | CC(C)=CCCC(C)C1CCC2C3CC(O)C4CC(O)CCC4(C)C3CCC12C (stereo not drawn)
130 | CCc1ccc(Cn2cc(-c3ccc(OC)cc3)ccc2=O)cn1
55 to 64 | Cc1cc(C(=O)N2Cc3ccc(C(=O)N(CCCN(C)C)CCCN(C)C)n3Cc3ccccc32)ccc1-c1ccccc1C(F)(F)F
179 to 181 | O=C(CCCCNC(=O)c1cn2c3c(cccc13)CCC2)NO
149 to 150 | COCOc1cc(Cl)ccc1-c1cc(-c2cccc(N(C(=O)OC(C)(C)C)C(=O)[C@@H](N)Cc3c[nH]cn3)c2)c(C#N)c(NC(=O)c2ccco2)n1
> 230 | CCn1nc(C)c2c1C(=O)NCC(c1ccc(NS(=O)(=O)c3ccccc3S(=O)(=O)c3ccccc3)cc1)=N2
196 to 197 | COC(C)Cn1c(C)nc2c(N)nc3ccccc3c21 (stereo not drawn)
207 | Cc1cc(-c2cc(C(F)(F)F)n3ncc(C(=O)Nc4cc(S(=O)(=O)NC(C)(C)CO)sc4Cl)c3n2)ccc1C(F)(F)F
242 to 244 | CN(c1nc(-c2cc3ccccc3[nH]c2=O)cs1)S(=O)(=O)c1ccccc1
92 to 96 | O=C(c1cccc(C(F)(F)F)c1)c1ncccc1C(O)=NNc1c(Cl)cc(C(F)(F)F)cc1Cl
75 | CC(C)(C)NS(=O)(=O)c1cnc(Cl)s1
180 to 182 | CCOCCOc1cccc(-c2ccc3c(c2)C=C(C(=O)Nc2ccc(CN(C)C4CCOCC4)cc2)CCS3(=O)=O)c1
188 | Cc1cccc(C(=O)NN=Cc2ccc3ccccc3n2)c1
162 to 164 | CCOC(=O)Cc1ncnc2c([N+](=O)[O-])cccc12
155 to 157 | CCC(C)n1cc(Cl)nc(N2CCc3cc(OC)cc(Br)c32)c1=O (stereo not drawn)
